Reference: patent US9301923B2, “Lipids, lipid compositions, and methods of using them” (NOVARTIS AG, priority 2009, dated 2016)
Several values for one entry are separate records, joined by “and”; a condition that tells them apart may be missing. Equal values may be shown once. Read-outs that look alike come from different tables or passages of the source.

Legend:
Factor VII = Factor VII activity assay, in vivo liver delivery of FVII siRNA LNP; design: species or system mouse; conditions: ~48 h
Protocol: Female CD-1 mice are received from Charles River Labs and maintained on standard lab chow and water ad libitum. The animals weigh approximately 25 grams at time of dosing. Formulated siRNA is administered as a single dose at various dose levels intravenously via the lateral tail vein calculated on a (mg siRNAs/kg) basis according to individual animal weights (10 ml/kg injection volume).
Formulated siRNAs are made up of double stranded siRNA sequences specific to a target mRNA sequence, and are in the form of lipid nucleotid particles (LNPs) containing cationic lipids, stealth lipids and neutral lipids, as provided in the Examples below. The siRNA construct for use in targeting the liver is specific to Factor VII. […] FVII siRNA duplex sequence
Formulated Factor VII siRNA is administered as a single dose at various dose levels intravenously via the lateral tail vein calculated on a mg siRNAs/kg basis according to individual animal weights (10 ml/kg injection volume). Approximately 48 h after injection, the mice are euthanized by CO2 inhalation followed by exsanguinations through the vena cava. […] In some cases, small pieces (˜50 mg) of liver are collected and snap frozen in liquid nitrogen for follow up mRNA quantitation.
An assay standard curve is prepared using pooled plasma aliquots from the vehicle control animals.

[1] = Particle size and PDI by dynamic light scattering (Malvern Zetasizer); assay type: physicochemical
Protocol: Unless indicated otherwise, all sizes referred to herein are the average sizes (diameters) of the fully formed nanoparticle, as measured by dynamic light scattering on a Malvern Zetasizer. The nanoparticle sample is diluted in phosphate buffered saline (PBS) so that the count rate is approximately 200-400 kcts. The data is presented as a weighted average of the intensity measure.
The acronym PDI stands for polydispersity index. Unless indicated otherwise, all PDIs referred to herein are the PDI of the fully formed nanoparticle, as measured by dynamic light scattering on a Malvern Zetasizer. The nanoparticle sample is diluted in phosphate buffered saline (PBS) so that the count rate is approximately 200-400 kcts.

[2] = pKa of the lipid by TNS fluorescence; assay type: physicochemical
Protocol: Unless explicitly indicated otherwise, all pKas referred to herein are measured in water at standard temperature and pressure. Also, unless otherwise indicated, all references to pKa are references to pKa measured using the following technique.
2 mM solution of lipid in ethanol are prepared by weighing the lipid and then dissolving in ethanol.
This is done with all eight buffers.
Priority: Column priority • Carriage Speed: Normal • Auto read: Off
The normalized fluorescence intensity vs. pH chart is then plotted in the Microsoft Excel software. The eight points are connected with a smooth line.
The pKa determined using this method is precise to about 0.2 pKa units.

[3] = dose 1 mg/kg siRNA i.v., lipid/DSPC/CHOL/AVANTI 880150P 50/28/18/4, N/P 3.43
[4] = dose 3 mg/kg siRNA i.v., lipid/DSPC/CHOL/AVANTI 880150P 50/28/18/4, N/P 3.43
[5] = dose 3 mg/kg siRNA i.v., lipid/no neutral lipid/CHOL/AVANTI 880150P 50/0/46/4, N/P 3.43
[6] = lipid/DSPC/CHOL/AVANTI 880150P 50/28/18/4, N/P 3.43
[7] = lipid/no neutral lipid/CHOL/AVANTI 880150P 50/0/46/4, N/P 3.43
[8] = lipid/DSPC/CHOL/AVANTI 880150P 25/28/18/4, N/P 1.9
[9] = lipid/DSPC/CHOL/AVANTI 880150P 30/30/36/4, N/P 2.3

Row | SMILES | FVII inhib % (Factor VII; [4]) [%] | FVII inhib % (Factor VII; [5]) [%] | Final size (nm) [1, 6] [nm] | PDI [1, 6] | Final size (nm) [1, 7] | PDI [1, 7] | pKa ([2]; pKa) | also measured
1 | CCCCC/C=C\C/C=C\CCCCCCCCOCC(CN1CCCCCC1)OCCOCCO[C@H]1CC[C@@]2(C)C(=CC[C@H]3[C@@H]4CC[C@H]([C@H](C)CCCC(C)C)[C@@]4(C)CC[C@@H]32)C1 (stereo partly shown) [E0017] | 98.3 | 96.5 | 106 | 0.17 | 97 nm | 0.19 | 6.46 | FVII inhib % (Factor VII; [3]): 53.8%
2 | CCCCC/C=C\C/C=C\CCCCCCCCOCC(CN1CCCC[C@@H]1C)OCCOCCO[C@H]1CC[C@@]2(C)C(=CCC3C2CC[C@@]2(C)C3CC[C@@H]2[C@H](C)CCCC(C)C)C1 (stereo partly shown) [E0019] | 76.7 | 85.2 | 143 | 0.065 | 90.5 nm and 180 nm | 0.164 and 0.19 | 6.75 | FVII inhib % (Factor VII; dose 1 mg/kg siRNA i.v., lipid/no neutral lipid/CHOL/AVANTI 880150P 50/0/46/4, N/P 3.43): 33.7%
3 | CCCCC/C=C\C/C=C\CCCCCCCCOCC(CN1CCCCC1)OC(=O)CCC(=O)O[C@H]1CC[C@@]2(C)C(=CCC3C2CC[C@@]2(C)C3CC[C@@H]2[C@H](C)CCCC(C)C)C1 (stereo partly shown) [E0036] | −47 | −23.1 | 122 | 0.12 | 76 nm | 0.24 | 5.74 | 
4 | CCCCC/C=C\C/C=C\CCCCCCCCOCC(CN1CCC(N2CCOCC2)C1)OCCOCCO[C@H]1CC[C@@]2(C)C(=CC[C@H]3[C@@H]4CC[C@H]([C@H](C)CCCC(C)C)[C@@]4(C)CC[C@@H]32)C1 (stereo partly shown) [E0038] | −2.4 | −6.2 | 116 | 0.25 | 115 nm | 0.08 |  | 
5 | CCCCC/C=C\C/C=C\CCCCCCCCOCC(CN1CCC[C@@H]1COC)OCCOCCO[C@H]1CC[C@@]2(C)C(=CC[C@H]3C4CC[C@H]([C@H](C)CCCC(C)C)[C@@]4(C)CC[C@@H]32)C1 (stereo partly shown) [E0037] | 69.3 | 66.2 | 96 | 0.24 | 117 nm | 0.1 |  | 
6 | CCCCC/C=C\C/C=C\CCCCCCCCOCC(CN1CCN(C(=O)OC(C)(C)C)CC1)OCCOCCO[C@H]1CC[C@@]2(C)C(=CC[C@H]3[C@@H]4CC[C@H]([C@H](C)CCCC(C)C)[C@@]4(C)CC[C@@H]32)C1 (stereo partly shown) [E0002] | 10.4 |  | 109 | 0.221 |  |  |  | FVII inhib % (Factor VII; [3]): −0.3%
7 | CCCCC/C=C\C/C=C\CCCCCCCCOCC(CN1CCC(CCOC)CC1)OCCOCCO[C@H]1CC[C@@]2(C)C(=CCC3C2CC[C@@]2(C)C3CC[C@@H]2[C@H](C)CCCC(C)C)C1 (stereo partly shown) [E0033] |  | 15.3 |  |  | 105 nm | 0.05 |  | FVII inhib % (Factor VII; dose 3 mg/kg siRNA i.v., lipid/DSPC/CHOL/AVANTI 880150P 25/28/18/4, N/P 1.9): −36.4%; Final size (nm) [1, 8]: 161 nm; PDI [1, 8]: 0.16
8 | CCCCC/C=C\C/C=C\CCCCCCCCOCC(CN1CCCCC1)OCCOCCOC(=O)O[C@H]1CC[C@@]2(C)C(C=CC3C2CC[C@@]2(C)C3CC[C@@H]2[C@H](C)CCCC(C)C)C1 (stereo partly shown) [E0056] |  |  |  |  |  |  | 6.33 | pKa [2]: 5.84
9 | CCCCC/C=C\C/C=C\CCCCCCCCOCC(CN1CCNCC1)OCCOCCO[C@H]1CC[C@@]2(C)C(=CC[C@H]3[C@@H]4CC[C@H]([C@H](C)CCCC(C)C)[C@@]4(C)CC[C@@H]32)C1 (stereo partly shown) [E0012] |  |  |  |  |  |  |  | FVII inhib % (Factor VII; dose 3 mg/kg siRNA i.v., lipid/DSPC/CHOL/AVANTI 880150P 30/30/36/4, N/P 2.3): 9.3%; Final size (nm) [1, 9]: 220 nm; PDI [1, 9]: 0.105
10 | CCCCC/C=C\C/C=C\CCCCCCCCOCC(CN1CCCCC1)OCCNC(=O)O[C@H]1CC[C@@]2(C)C(=CC[C@H]3[C@@H]4CC[C@H]([C@H](C)CCCC(C)C)[C@@]4(C)CC[C@@H]32)C1 (stereo partly shown) [E0102] |  |  |  |  |  |  | 6.31 | Final size (nm) ([1]; LNP formulation with PLK1 siRNA, helper, neutral and stealth lipid, molar ratio and N/P as in the table): 94.69 nm
11 | CCCCC/C=C\C/C=C\CCCCCCCCOCC(CN1CCC(F)(F)CC1)OCCOCCO[C@H]1CC[C@@]2(C)C(=CCC3C2CC[C@@]2(C)C3CC[C@@H]2[C@H](C)CCCC(C)C)C1 (stereo partly shown) [E0170] | 9.3 | 14.3 | 133 | 0.095 | 170 nm | 0.05 |  | 
12 | CCCCC/C=C\C/C=C\CCCCCCCCOC[C@@H](CN1CCCCC1)OCCOCCO[C@H]1CC[C@@]2(C)C(=CCC3C2CC[C@@]2(C)C3CC[C@@H]2[C@H](C)CCCC(C)C)C1 (stereo partly shown) [E0034] | 81.3 | 88.1 | 99 | 0.16 | 99 nm | 0.16 |  | 
13 | CCCCCCCC/C=C\CCCCCCCCOCC(CN1CCOCC1)OCCOCCOC(=O)CO[C@H]1CC[C@@]2(C)C(=CC[C@H]3[C@@H]4CC[C@H]([C@H](C)CCCC(C)C)[C@@]4(C)CC[C@@H]32)C1 (stereo partly shown) [E0125] |  |  |  |  |  |  | 5.53 | Final size (nm) ([1]; LNP formulation with PLK1 siRNA, helper, neutral and stealth lipid, molar ratio and N/P as in the table, stealth lipid S004, molar ratio 50/38/10/2, N/P 4): 101.5 nm; Final size (nm) ([1]; LNP formulation with PLK1 siRNA, helper, neutral and stealth lipid, molar ratio and N/P as in the table, stealth lipid S004, molar ratio 50/43/5/2, N/P 4): 92.84 nm; Final size (nm) ([1]; LNP formulation with PLK1 siRNA, helper, neutral and stealth lipid, molar ratio and N/P as in the table, stealth lipid S004, molar ratio 50/48/2, N/P 4): 94.13 nm
14 | CCCCC/C=C\C/C=C\CCCCCCCCOCC(CN1CC2CCCC2C1)OCCOCCO[C@H]1CC[C@@]2(C)C(=CC[C@H]3[C@@H]4CC[C@H]([C@H](C)CCCC(C)C)[C@@]4(C)CC[C@@H]32)C1 (stereo partly shown) [E0022] | 49.4 | 87.8 | 93 | 0.143 | 84 nm | 0.192 |  | 
15 | CCCCC/C=C\C/C=C\CCCCCCCCOCC(CN1CCC(OC)CC1)OCCOCCO[C@H]1CC[C@@]2(C)C(=CCC3C2CC[C@@]2(C)C3CC[C@@H]2[C@H](C)CCCC(C)C)C1 (stereo partly shown) [E0005] | 12.2 |  | 168 | 0.069 | 146 nm | 0.07 |  | 
